Experimental data as given in patent US20250090437A1, “COSMETIC COMPOUNDING AGENT, COSMETIC AND PRODUCTION METHOD THEREOF” (MIYOSHI OIL & FAT CO., LTD., priority 2019, published 2025).

How the values were obtained:
[1] = Water retention property test 1; assay type: physicochemical; conditions: 80 wt % aqueous solution; for Water retention property test 1 Post-test moisture rate / Water retention property test 1 Rate of reduction in moisture / Post-test moisture rate / Rate of reduction in moisture: 24 hours at 40° C. and 25% RH; for Pre-test moisture rate: before the test (Karl Fischer); for Post-test moisture rate / Rate of reduction in moisture: unsealed
Description: A moisture rate after 24 hours was again measured (post-test moisture rate: B), followed by using the formula below to calculate a rate of reduction in moisture so as to evaluate the water retention property. • Pre-test moisture rate: A (%) • Post-test moisture rate: B (%)

[2] = Water retention property test 3 (long term); assay type: physicochemical; conditions: 80 wt % aqueous solution; for Amount of moisture reduction in 0 to 24 h / Amount of moisture reduction in 24 to 96 h: 1.0 g; for Amount of moisture reduction in 0 to 24 h / Amount of moisture reduction in 24 to 96 h / Amount of moisture reduction per hour / Moisture rate after 24 h / Moisture rate after 96 h: 40° C. and 25% RH; for Pre-test moisture rate: before the test; for Moisture rate after 24 h / Moisture rate after 96 h: unsealed
Description: In a water retention property test 3, an 80 wt % aqueous solution of each of the compounds C8, C11, C62, C63 and C64 was prepared, followed by using a Karl Fischer moisture meter to confirm that a moisture rate was 20.0 wt %. Next, 1.0 g of each of these samples was added to a screw tube, and this screw tube, while remaining unsealed, was then left to stand still in a thermo-hygrostat set to 40° C. and 25% RH. […] In addition, the water retention property was evaluated by calculating an amount of moisture reduction per hour (mg/h) based on each amount of moisture reduction (mg).

| SMILES | Water retention property test 1 Pre-test moisture rate [1] | Water retention property test 1 Post-test moisture rate [1] [%] | Water retention property test 1 Rate of reduction in moisture [1] [%] | other results |
| --- | --- | --- | --- | --- |
| C[N+](C)(C)CCO.O=[PH2][O-] [Compound C34] | 20.0% | 19.4 | 3.0 |  |
| CCC(O)C(O)C(O)C(O)CO (stereo not shown) [Compound C56] |  |  |  | Pre-test moisture rate [1]: 20.0%; Post-test moisture rate [1]: 19.7%; Rate of reduction in moisture [1]: 1.7% |
| CC(C)(C)CO [Compound C44] | 20.0% | 19.2 | 4.7 |  |
| C[N+](C)(C)CCO.O=P([O-])(O)O [Compound C33] | 20.0% | 19.4 | 3.0 |  |
| C[N+](C)(C)CCO.O=C([O-])CO [Compound C28] | 20.0% | 19.4 | 3.0 |  |
| C[N+](C)(CCO)CC(O)CO.[Cl-] (stereo not shown) [Compound C37] | 20.0% | 18.3 | 8.3 |  |
| C[N+](C)(C)CCO.O=C([O-])CCC(=O)O [Compound C31] | 20.0% | 19.0 | 5.5 |  |
| CC[N+](C)(C)CCO.CS(=O)(=O)[O-] [Compound C36] | 20.0% | 19.6 | 2.0 |  |
| C[N+](C)(CCO)CC(O)C[N+](C)(C)CCO.[Cl-].[Cl-] [Compound C38] | 20.0% | 18.1 | 9.5 |  |
| CCCC[N+](CCCC)(CCCC)CCCC.[Br-] [Comparative example C13] |  |  |  | Amount of moisture reduction in 0 to 24 h ([2]; 0~24 h): 49.1 mg; Amount of moisture reduction in 24 to 96 h ([2]; 24~96 h): 145.8 mg; Amount of moisture reduction per hour ([2]; 0~24 h): 2.0 mg/h; Amount of moisture reduction per hour ([2]; 24~96 h): 2.0 mg/h; Pre-test moisture rate [2]: 20.0%; Moisture rate after 24 h [2]: 15.9%; Moisture rate after 96 h [2]: 0.7% |
| CC(=O)[O-].C[N+](C)(C)CCO [Compound C27] | 20.0% | 19.0 | 5.0 |  |
| CCC(C)(CO)CO [Compound C48] | 20.0% | 19.4 | 2.9 |  |
| CCCCn1cc[n+](C)c1.F[B-](F)(F)F [Comparative example C14] |  |  |  | Amount of moisture reduction in 0 to 24 h ([2]; 0~24 h): 64.3 mg; Amount of moisture reduction in 24 to 96 h ([2]; 24~96 h): 134.4 mg; Amount of moisture reduction per hour ([2]; 0~24 h): 2.7 mg/h; Pre-test moisture rate [2]: 20.0%; Moisture rate after 24 h [2]: 14.5%; Moisture rate after 96 h [2]: 0.0% |
| NC(CO)(CO)CO.O=C(O)CC(O)(CC(=O)O)C(=O)O [Compound C21] | 20.0% 20.0% | 19.0 | 5.1 |  |
| CC(O)C(=O)O.NCCCCCC(=O)O [Compound C61] |  |  |  | Pre-test moisture rate [1]: 20.0%; Post-test moisture rate [1]: 18.1%; Rate of reduction in moisture [1]: 9.9% |
| O=C1OC(C(O)CO)C(O)=C1O.OCCN(CCO)CCO (stereo not shown) [Compound C42] | 20.0% | 19.1 | 4.4 |  |
| CC(O)C(=O)O.NCCCC(=O)O [Compound C60] |  |  |  | Pre-test moisture rate [1]: 20.0%; Post-test moisture rate [1]: 18.1%; Rate of reduction in moisture [1]: 9.9% |
